Biological target: T1, 6-phosphofructo-2-kinase/fructose-2,6-bisphosphatase-3 (PFKFB3) (Homo sapiens, UniProt Q16875)
T1 construct: Recombinant full length human PFKFB3 protein purified from Sf9 baculoviral system
Test: ADP-Glo kinase assay with recombinant PFKFB3 (ATP + F6P)
Type: biochemical

T1 sequence (Q16875 whole entry): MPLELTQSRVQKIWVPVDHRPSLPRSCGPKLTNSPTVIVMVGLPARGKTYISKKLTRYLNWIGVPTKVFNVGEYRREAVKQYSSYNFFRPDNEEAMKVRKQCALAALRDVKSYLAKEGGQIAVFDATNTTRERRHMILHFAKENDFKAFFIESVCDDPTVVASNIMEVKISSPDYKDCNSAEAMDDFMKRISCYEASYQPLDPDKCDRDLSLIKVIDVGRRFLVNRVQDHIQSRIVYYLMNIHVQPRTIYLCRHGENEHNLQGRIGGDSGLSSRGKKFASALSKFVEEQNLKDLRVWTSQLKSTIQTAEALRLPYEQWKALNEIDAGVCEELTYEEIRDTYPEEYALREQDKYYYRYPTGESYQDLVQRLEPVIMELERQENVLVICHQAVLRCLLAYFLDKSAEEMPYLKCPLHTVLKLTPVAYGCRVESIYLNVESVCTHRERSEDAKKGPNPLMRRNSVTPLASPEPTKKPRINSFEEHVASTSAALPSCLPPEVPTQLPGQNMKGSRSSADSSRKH

IC50: 18 nM
Compound: Cc1noc(C)c1Cn1cc(C#N)c2cc(Oc3ccc(NC(=O)[C@@H]4CCCN4)cc3)ccc21 [AZ67]

From article PMC6691133, “Targeting PFKFB3 alleviates cerebral ischemia-reperfusion injury in mice” (Scientific Reports, 2019)
